Results: ChEMBL document CHEMBL1123926, “Synthesis and neuroleptic activity of a series of 1-[1-(benzo-1,4-dioxan-2-ylmethyl)-4-piperidinyl]benzim idazolone derivatives” (J Med Chem, 1987)

Assays:
[1] = Therapeutic ratio of ED50 of catalepsy in rats to ED50 of climbing in mouse; type: ADME, organism-based; conditions: rat and mouse, in vivo
Mus musculus [2] = test: Neuroleptic activity determined by its inhibitory effect on apomorphine-induced climbing behavior in mice by intraperitoneal administration. Range is 0.037-0.256; type: functional; conditions: ip
Rattus norvegicus = organism: Rattus norvegicus; test: Cataleptogenic activity was evaluated for the compound as the 50% effective dose required to induce cataleptic effect in rats; type: functional
Mus musculus [3] = test: Neuroleptic activity determined by its inhibitory effect on apomorphine-induced climbing behavior in mice by intraperitoneal administration. Range is 0.007-0.250; type: functional; conditions: ip
D(2) dopamine receptor [4] = target: T1, D(2) dopamine receptor (Bos taurus, UniProt P20288); test: Displacement of [3H]spiroperidol from bovine caudate nucleus membrane Dopamine receptor D2
Mus musculus [5] = test: Neuroleptic activity determined by its inhibitory effect on apomorphine-induced climbing behavior in mice by intraperitoneal administration. Range is 0.040-0.075; type: functional; conditions: ip
[6] = target: Dopamine receptor (Mus musculus) (UniProt P51436+Q8BLD9+Q61616+P61168+P30728); test: Neuroleptic activity determined by its inhibitory effect on apomorphine-induced climbing behavior in mice by intraperitoneal administration; type: functional, organism-based
Mus musculus [7] = test: Neuroleptic activity determined by its inhibitory effect on apomorphine-induced climbing behavior in mice by intraperitoneal administration in experiment 2. Range is 0.11-0.41; type: functional; conditions: ip
Mus musculus [8] = test: Neuroleptic activity determined by its inhibitory effect on apomorphine-induced climbing behavior in mice by peroral administration in experiment 1.Range is 0.02-0.42; type: functional; conditions: po
Mus musculus [9] = test: Neuroleptic activity determined by its inhibitory effect on apomorphine-induced climbing behavior in mice by intraperitoneal administration. Range is 0.03-0.064; type: functional; conditions: ip
Mus musculus [10] = test: Neuroleptic activity determined by its inhibitory effect on apomorphine-induced climbing behavior in mice by intraperitoneal administration. Range is 0.071-0.206; type: functional; conditions: ip
Mus musculus [11] = test: Neuroleptic activity determined by its inhibitory effect on apomorphine-induced climbing behavior in mice by intraperitoneal administration. Range is 0.008-0.766; type: functional; conditions: ip
Mus musculus [12] = test: Neuroleptic activity determined by its inhibitory effect on apomorphine-induced climbing behavior in mice by intraperitoneal administration. Range is 0.007-0.029; type: functional; conditions: ip
Mus musculus [13] = test: Neuroleptic activity determined by its inhibitory effect on apomorphine-induced climbing behavior in mice by intraperitoneal administration. Range is 0.019-0.092; type: functional; conditions: ip
Mus musculus [14] = test: Neuroleptic activity determined by its inhibitory effect on apomorphine-induced climbing behavior in mice by intraperitoneal administration. Range is between 0.0033-0.278; type: functional; conditions: ip
Mus musculus [15] = test: Neuroleptic activity determined by its inhibitory effect on apomorphine-induced climbing behavior in mice by intraperitoneal administration. Range is between 0.035-0.192; type: functional; conditions: ip
D(2) dopamine receptor [16] = target: T1, D(2) dopamine receptor; test: Binding affinity towards dopamine receptor D2 was determined by displacement of [3H]spiroperidol from bovine nucleus caudate membranes.
[17] = Therapeutic ratio of ED50 of catalepsy to ED50 of climbing in […]; type: ADME
Mus musculus [18] = test: Neuroleptic activity determined by its inhibitory effect on apomorphine-induced climbing behavior in mice by intraperitoneal administration. Range is between 0.009-0.037; type: functional; conditions: ip
Mus musculus [19] = organism: Mus musculus; test: animal or person; conditions: ip
Description: Neuroleptic activity determined by its inhibitory effect on apomorphine-induced climbing behavior in mice by intraperitoneal administration in experiment 2 Range is 0.05-0.17

Mus musculus [20] = test: Neuroleptic activity determined by its inhibitory effect on apomorphine-induced climbing behavior in mice by peroral administration; type: functional; conditions: po
Mus musculus [21] = test: Neuroleptic activity determined by its inhibitory effect on apomorphine-induced climbing behavior in mice by intraperitoneal administration. Range is 0.009-0.109; type: functional; conditions: ip

T1 sequence (P20288 whole entry): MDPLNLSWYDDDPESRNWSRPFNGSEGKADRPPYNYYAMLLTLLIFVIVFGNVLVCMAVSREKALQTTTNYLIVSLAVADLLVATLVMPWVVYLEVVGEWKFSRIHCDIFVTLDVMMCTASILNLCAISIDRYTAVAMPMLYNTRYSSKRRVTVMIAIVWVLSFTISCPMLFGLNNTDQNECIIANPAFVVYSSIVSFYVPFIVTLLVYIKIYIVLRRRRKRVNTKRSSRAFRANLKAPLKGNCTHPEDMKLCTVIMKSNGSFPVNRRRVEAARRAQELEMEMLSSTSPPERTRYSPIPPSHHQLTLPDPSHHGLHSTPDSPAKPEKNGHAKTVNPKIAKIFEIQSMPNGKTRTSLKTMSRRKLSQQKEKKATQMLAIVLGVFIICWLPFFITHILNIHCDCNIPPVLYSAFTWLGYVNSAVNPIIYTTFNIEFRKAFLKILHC

Row | Compound | ED50 (Rattus norvegicus) [mg/kg] | ED50 [6] [mg/kg] | further results
1 | Oc1nc2cc(F)ccc2n1C1CCN(CC2COc3ccc(F)cc3O2)CC1 (configuration not stated) | 20 |  | selectivity ratio [1]: 204; ED50 (Mus musculus [2]): 0.098 mg/kg
2 | Cc1ccc2c(c1)nc(O)n2C1CCN(CC2COc3ccccc3O2)CC1 (configuration not stated) | 40 |  | selectivity ratio [1]: 3080; ED50 (Mus musculus [3]): 0.013 mg/kg; Ki (D(2) dopamine receptor [4]): 120 nM
3 | Cc1cc2c(cc1C)OC(CN1CCC(n3c(O)nc4cc(F)ccc43)CC1)CO2 (configuration not stated) | > 20 |  | selectivity ratio [1]: > 363; Ki (D(2) dopamine receptor [4]): 25 nM; ED50 (Mus musculus [5]): 0.055 mg/kg
4 | Oc1nc2cc(F)ccc2n1C1CCN(CC2COc3cc(Cl)c(Cl)cc3O2)CC1 (configuration not stated) |  | 5.5 | 
5 | Oc1nc2cccnc2n1C1CCN(CC2COc3ccccc3O2)CC1 (configuration not stated) |  | > 10 | 
6 | Oc1nc2ccccc2n1C1CCN(CC2COc3ccccc3O2)CC1 (configuration not stated) |  | 0.7 | 
7 | O=c1[nH]c2cc(Cl)ccc2n1C1CCN(CC2COc3ccccc3O2)CC1 (configuration not stated) [AXAMOZIDE] | > 40 |  | ED50 (Mus musculus [7]): 0.21 mg/kg; selectivity ratio [1]: > 444; ED50 (Mus musculus [8]): 0.09 mg/kg; Ki (D(2) dopamine receptor [4]): 30 nM
8 | Oc1nc2cc(F)ccc2n1C1CCN(CC2COc3ccc(Cl)cc3O2)CC1 (configuration not stated) |  |  | ED50 (Mus musculus [9]): 0.044 mg/kg
9 | Oc1nc2cc(-c3ccccc3)ccc2n1C1CCN(CC2COc3ccccc3O2)CC1 (configuration not stated) |  | > 25 | 
10 | Oc1nc2cc(Cl)ccc2n1C1CCN(CC2COc3ccc(Cl)cc3O2)CC1 (configuration not stated) |  | 0.75 | 
11 | Oc1nc2cccc(Cl)c2n1C1CCN(CC2COc3ccc(F)cc3O2)CC1 (configuration not stated) |  | > 25 | 
12 | Cc1ccc2c(c1)nc(O)n2C1CCN(CC2COc3cc(F)ccc3O2)CC1 (configuration not stated) |  | 0.5 | 
13 | Cc1ccc2c(c1)OCC(CN1CCC(n3c(O)nc4cc(Cl)ccc43)CC1)O2 (configuration not stated) | 20 |  | ED50 (Mus musculus [10]): 0.121 mg/kg; selectivity ratio [1]: 165; Ki (D(2) dopamine receptor [4]): 60 nM
14 | Oc1nc2cc(C(F)(F)F)ccc2n1C1CCN(CC2COc3ccccc3O2)CC1 (configuration not stated) |  | > 10 | 
15 | Oc1nc2cc(Cl)c(Cl)cc2n1C1CCN(CC2COc3ccc(F)cc3O2)CC1 (configuration not stated) |  | 1.4 | 
16 | Oc1nc2cc(Cl)ccc2n1C1CCN(CC2COc3cc(F)ccc3O2)CC1 (configuration not stated) |  | 0.2 | 
17 | Oc1nc2cccc(Cl)c2n1C1CCN(CC2COc3ccccc3O2)CC1 (configuration not stated) |  | > 20 | 
18 | Oc1nc2ccc(Cl)cc2n1C1CCN(CC2COc3ccc(F)cc3O2)CC1 (configuration not stated) |  | 0.16 | 
19 | Cc1ccc2c(c1)nc(O)n2C1CCN(CC2COc3cc(C)c(C)cc3O2)CC1 (configuration not stated) | 10 |  | selectivity ratio [1]: 126; ED50 (Mus musculus [11]): 0.079 mg/kg; Ki (D(2) dopamine receptor [4]): 45 nM
20 | Cc1ccc2c(c1)nc(O)n2C1CCN(CC2COc3ccc(F)cc3O2)CC1 (configuration not stated) | 2.5 |  | selectivity ratio [1]: 187; ED50 (Mus musculus [12]): 0.014 mg/kg; Ki (D(2) dopamine receptor [4]): 150 nM
21 | Cc1cccc2c1OCC(CN1CCC(n3c(O)nc4cc(F)ccc43)CC1)O2 (configuration not stated) | 8 |  | selectivity ratio [1]: 186; Ki (D(2) dopamine receptor [4]): 8 nM; ED50 (Mus musculus [13]): 0.043 mg/kg
22 | O=c1[nH]c2cc(F)ccc2n1C1CCN(CC2COc3cc(F)ccc3O2)CC1 (configuration not stated) |  |  | selectivity ratio [1]: < 8; Ki (D(2) dopamine receptor [4]): 70 nM

Row | Compound | ED50 (Rattus norvegicus) [mg/kg] | ED50 [6] [mg/kg] | further results
23 | CC(C)(C)c1ccc2c(c1)nc(O)n2C1CCN(CC2COc3ccccc3O2)CC1 (configuration not stated) |  | > 25 | 
24 | COc1ccc2c(c1)nc(O)n2C1CCN(CC2COc3ccccc3O2)CC1 (configuration not stated) | 1 |  | ED50 (Mus musculus [14]): 9.6 µg/kg; selectivity ratio [1]: 104; Ki (D(2) dopamine receptor [4]): 150 nM
25 | Oc1nc2cc(Br)ccc2n1C1CCN(CC2COc3ccccc3O2)CC1 (configuration not stated) | 20 |  | selectivity ratio [1]: 244; ED50 (Mus musculus [15]): 0.082 mg/kg; Ki (D(2) dopamine receptor [4]): 70 nM
26 | Cc1ccc2c(c1)nc(O)n2C1CCN(CC2COc3ccc(Cl)cc3O2)CC1 (configuration not stated) | 1 | 0.093 | Ki (D(2) dopamine receptor [16]): 30 nM; selectivity ratio [17]: 11
27 | CCc1ccc2c(c1)nc(O)n2C1CCN(CC2COc3ccccc3O2)CC1 (configuration not stated) |  | 0.17 | 
28 | Oc1nc2cc(F)ccc2n1C1CCN(CC2COc3cc(F)ccc3O2)CC1 (configuration not stated) | < 5 | 0.63 | 
29 | Oc1nc2cc(Cl)c(Cl)cc2n1C1CCN(CC2COc3ccccc3O2)CC1 (configuration not stated) |  | 0.45 | 
30 | Oc1nc2ccc(Cl)cc2n1C1CCN(CC2COc3ccccc3O2)CC1 (configuration not stated) |  | 0.11 | 
31 | Cc1cccc2c1OCC(CN1CCC(n3c(O)nc4cc(Cl)ccc43)CC1)O2 (configuration not stated) |  | 1.3 | 
32 | Cc1c(Cl)ccc2nc(O)n(C3CCN(CC4COc5ccccc5O4)CC3)c12 (configuration not stated) |  | 10 | 
33 | Nc1ccc2c(c1)nc(O)n2C1CCN(CC2COc3ccccc3O2)CC1 (configuration not stated) |  | 3.9 | 
34 | Oc1nc2cc(C(F)(F)F)ccc2n1C1CCN(CC2COc3ccc(F)cc3O2)CC1 (configuration not stated) |  | > 10 | 
35 | Oc1nc2cc(F)ccc2n1C1CCN(CC2COc3ccccc3O2)CC1 (configuration not stated) |  |  | ED50 (Mus musculus [18]): 0.019 mg/kg
36 | O=C(CCCN1CCC(O)(c2ccc(Cl)cc2)CC1)c1ccc(F)cc1 [HALOPERIDOL] | 0.5 |  | ED50 (Mus musculus [19]): 0.09 mg/kg
37 | Cc1c(Cl)ccc2nc(O)n(C3CCN(CC4COc5ccc(F)cc5O4)CC3)c12 (configuration not stated) |  | > 25 | 
38 | Oc1nc2cccnc2n1C1CCN(CC2COc3ccc(F)cc3O2)CC1 (configuration not stated) |  | > 25 | 
39 | Oc1nc2cc(Cl)ccc2n1C1CCN(CC2COc3ccc(F)cc3O2)CC1 (configuration not stated) |  |  | ED50 (Mus musculus [20]): 0.14 mg/kg
40 | Cc1ccc2c(c1)OCC(CN1CCC(n3c(O)nc4cc(C)ccc43)CC1)O2 (configuration not stated) | 6 |  | selectivity ratio [1]: 188; ED50 (Mus musculus [21]): 0.032 mg/kg; Ki (D(2) dopamine receptor [4]): 40 nM
41 | Cc1cc2c(cc1C)OC(CN1CCC(n3c(O)nc4cc(Cl)ccc43)CC1)CO2 (configuration not stated) |  | 0.8 | 
42 | Cc1ccc2c(c1)nc(O)n2C1CCN(CC2COc3cc(Cl)c(Cl)cc3O2)CC1 (configuration not stated) |  | 3.6 | 
43 | Oc1nc2cc(Cl)ccc2n1C1CCN(CC2COc3cc(Cl)c(Cl)cc3O2)CC1 (configuration not stated) |  | 6 | 
